Data reported in ChEMBL document CHEMBL1201862, “PubChem BioAssay data set” (2004).
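Protocol summary: plate cells (96-well), add compound at 5 concentrations, incubate 48 h, interpolate endpoints linearly. GI50 is the concentration that inhibits growth by half.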 Activity calls are given as the source filed them. No stated cut-off is given here; in the data, active = GI50 up to about 1.1 µM and inactive = higher.

Key:
Assay in all cases: NCI tumour cell line growth inhibition, 48 h
NCI-H460 = tested on: NCI-H460
A549 = tested on: A549
CCRF-CEM = tested on: CCRF-CEM
MCF7 = tested on: MCF7
UACC-62 = tested on: UACC-62
SF-539 = tested on: SF-539
SK-OV-3 = tested on: SK-OV-3
U-251 = tested on: U-251
MDA-MB-231 = tested on: MDA-MB-231
KM12 = tested on: KM12
HCT-15 = tested on: HCT-15
OVCAR-4 = tested on: OVCAR-4
Hs-578T = tested on: Hs-578T
OVCAR-3 = tested on: OVCAR-3
NCI-H23 = tested on: NCI-H23
PC-3 = tested on: PC-3
NCI/ADR-RES = tested on: NCI/ADR-RES
RXF 393 = tested on: RXF 393
A498 = tested on: A498

SMILES	GI50 (NCI-H460)	GI50 (A549)	GI50 (CCRF-CEM)	GI50 (MCF7)	GI50 (UACC-62)	GI50 (SF-539)	GI50 (SK-OV-3)	GI50 (U-251)	GI50 (MDA-MB-231)	GI50 (KM12)	GI50 (HCT-15)	GI50 (OVCAR-4)	GI50 (Hs-578T)	GI50 (OVCAR-3)	GI50 (NCI-H23)	GI50 (PC-3)	GI50 (NCI/ADR-RES)	GI50 (RXF 393)	GI50 (A498)
Cn1/c(=N\N=C(\CNCCO)[C@@H](O)[C@@H]2OC(c3ccccc3)OC[C@H]2O)sc2ccccc21 (some centres undefined)	21.5 µM (inactive)	15.8 µM (inactive)	17.8 µM (inactive)	16.7 µM (inactive)	16.9 µM (inactive)	17.5 µM (inactive)	18.4 µM (inactive)	17.3 µM (inactive)	15.2 µM (inactive)	17.1 µM (inactive)	25.5 µM	23.9 µM (inactive)	14.8 µM (inactive)	16.4 µM (inactive)	20 µM (inactive)	16.6 µM (inactive)	50.7 µM (inactive)	16.1 µM (inactive)	–
CC1(C)COC(c2cccc(C(O)c3ccc(Cl)cc3)c2)=N1 (centres undefined)	29.4 µM (inactive)	> 10 µM (inactive)	19 µM (inactive)	19.6 µM (inactive)	19 µM (inactive)	19.4 µM (inactive)	26.4 µM (inactive)	22.6 µM (inactive)	29.9 µM (inactive)	43.7 µM (inactive)	–	56.8 µM (inactive)	23.4 µM (inactive)	20.1 µM (inactive)	23.9 µM (inactive)	16.6 µM (inactive)	33.3 µM (inactive)	15 µM (inactive)	–
CC(=O)c1c(C)cn(S(=O)(=O)NC(=O)Nc2nncs2)c1C	> 100 µM (inactive)	> 100 µM (inactive)	23.3 µM (inactive)	> 100 µM (inactive)	> 100 µM (inactive)	–	> 100 µM (inactive)	> 100 µM (inactive)	> 100 µM (inactive)	> 100 µM (inactive)	> 100 µM	> 100 µM (inactive)	> 100 µM (inactive)	> 100 µM (inactive)	> 100 µM (inactive)	> 100 µM (inactive)	> 100 µM (inactive)	> 100 µM (inactive)	> 100 µM (inactive)
COC(=O)[C@@](NC(=O)OCc1ccccc1)([C@H](C)O)C(F)(F)F	> 100 µM (inactive)	> 100 µM (inactive)	57.4 µM (inactive)	–	> 100 µM (inactive)	–	> 100 µM (inactive)	> 100 µM (inactive)	> 100 µM (inactive)	> 100 µM (inactive)	> 100 µM	> 100 µM (inactive)	> 100 µM (inactive)	> 100 µM (inactive)	> 100 µM (inactive)	> 100 µM (inactive)	> 100 µM (inactive)	53.5 µM (inactive)	> 100 µM (inactive)
O=c1oc2ccccc2cc1-c1nc2ccccc2s1	7.45 µM (inactive)	4.94 µM (inactive)	–	–	14.6 µM (inactive)	2.89 µM (inactive)	10.1 µM (inactive)	7.35 µM (inactive)	12 µM (inactive)	6.89 µM (inactive)	29.6 µM	11.6 µM (inactive)	6.55 µM (inactive)	6.4 µM (inactive)	15.6 µM (inactive)	17.2 µM (inactive)	10 µM (inactive)	11.3 µM (inactive)	13.4 µM (inactive)
CCOC(=O)C1C(c2ccc3c(c2)OCO3)c2c(n[nH]c2O)CC1(C)O (centres undefined)	> 100 µM (inactive)	> 100 µM (inactive)	> 100 µM (inactive)	> 100 µM (inactive)	> 100 µM (inactive)	> 100 µM (inactive)	–	> 100 µM (inactive)	> 100 µM (inactive)	> 100 µM (inactive)	> 100 µM	> 100 µM (inactive)	> 100 µM (inactive)	> 100 µM (inactive)	> 100 µM (inactive)	> 100 µM (inactive)	> 100 µM (inactive)	–	> 100 µM (inactive)
Cc1c(Br)c(Br)c(C)[s+]1[O-]	14.6 µM (inactive)	15.6 µM (inactive)	1.92 µM (inactive)	25 µM (inactive)	20.4 µM (inactive)	5.38 µM (inactive)	23.8 µM (inactive)	11.6 µM (inactive)	22.9 µM (inactive)	13.8 µM (inactive)	12.4 µM	26.2 µM (inactive)	28.5 µM (inactive)	5.92 µM (inactive)	25.3 µM (inactive)	17.5 µM (inactive)	29 µM (inactive)	–	27.4 µM (inactive)
O=C1c2ccccc2-c2c1c1ccccc1c(=O)n2Cc1ccccc1	–	> 100 µM (inactive)	> 100 µM (inactive)	> 100 µM (inactive)	46.6 µM (inactive)	57.1 µM (inactive)	> 100 µM (inactive)	93.8 µM (inactive)	50.1 µM (inactive)	> 100 µM (inactive)	> 100 µM	14.5 µM (inactive)	43.5 µM (inactive)	> 100 µM (inactive)	68.2 µM (inactive)	> 100 µM (inactive)	> 100 µM (inactive)	–	49.1 µM (inactive)
